Reference: patent US9232796B2, “Herbicidal compositions comprising 4-amino-3-chloro-5-fluoro-6-(4-chloro-2-fluoro-3-methoxyphenyl) pyridine-2-carboxylic acid or a derivative thereof and acetyl-CoA carboxylase (ACCase) inhibitors” (DOW AGROSCIENCES LLC, priority 2012, dated 2016)

What was measured:
[1] = system: CYPES; assay: Example I postemergence foliar-applied, greenhouse, direct seeded rice weeds; type: in vivo, Cyperus esculentus L.
Source text: (§1) Seeds or nutlets of the desired test plant species were planted in a soil matrix prepared by mixing a loam or sandy loam soil (e.g., 28.6 percent silt, 18.8 percent clay, and 52.6 percent sand, with a pH of about 5.8 and an organic matter content of about 1.8 percent) and calcareous grit in an 80 to 20 ratio. The soil matrix was contained in plastic pots with a volume of 1 quart and a surface area of 83.6 square centimeters (cm^2). When required to ensure good germination and healthy plants, a fungicide treatment and/or other chemical or physical treatment was applied. The plants were grown for 8-22 days in a greenhouse with an approximate 14 hr. photoperiod which was maintained at about 29° C. during the day and 26° C. during the night. Nutrients (Peters Excel® 15-5-15 5-Ca 2-Mg and iron chelate) were applied in the irrigation solution as needed and water was added on a regular basis. Supplemental lighting was provided with overhead metal halide 1000-Watt lamps as necessary. The plants were employed for testing when they reached the first through fourth true leaf stage.
(§2) Treatments consisted of the acid or esters of 4-amino-3-chloro-5-fluoro-6-(4-chloro-2-fluoro-3-methoxy-phenyl)pyridine-2-carboxylic acid (Compound A), each formulated as an SC (suspension concentrate), and various herbicidal components alone and in combination.
(§3) Other herbicidal components were applied on an acid equivalent (ae) or active ingredient (ai) basis and included acetyl coA carboxylase (ACCase)-inhibiting herbicides (cyclohexanedione and aryloxyphenoxypropionate chemical classes) cyhalofop-butyl formulated as Clincher® SF (285 gr ai/L EC), diclofop-methyl formulated as Hoelon® 3EC, fenoxaprop-p-ethyl+isoxadifen-ethyl formulated as RiceStar® HT (0.58 lb./gal EC), fenoxaprop-p-ethyl+mefenpyr diethyl formulated as Puma® IEC, metamifop formulated as Metamifop EC, haloxyfop-methyl formulated as Gallant Super®, fluazifop-p-butyl formulated as Fusilade® DX, quizalofop-p-ethyl formulated as Assure® II, profoxydim formulated as Aura® 20EC, clethodim applied as Intensity®, sethoxydim formulated as Poast®, and tralkoxydim formulated as Achieve®.
(§4) Treatment requirements were calculated based upon the rates being tested, the concentration of active ingredient or acid equivalent in the formulation, and a 12 mL application volume at a rate of 187 L/ha.
(§5) For treatments comprised of formulated compounds, measured amounts of compounds were placed individually in 25 mL glass vials and diluted in a volume of 1.25% (v/v) Agri-Dex® crop oil concentrated to obtain 12× stock solutions. […] Application solutions were prepared by adding an appropriate amount of each stock solution (e.g., 1 mL) and diluted to the appropriate final concentrations with the addition of 10 mL of an aqueous mixture of 1.25% (v/v) crop oil concentrate so that the final spray solutions contained 1.25+/−0.05% (v/v) crop oil concentrate.
(§6) All stock solutions and applications solutions were visually inspected for compound compatibility prior to application. Spray solutions were applied to the plant material with an overhead Mandel track sprayer equipped with a 8002E nozzles calibrated to deliver 187 L/ha over an application area of 0.503 m^2 at a spray height of 18 to 20 inches (46 to 50 cm) above average plant canopy height. Control plants were sprayed in the same manner with the solvent blank.
(§7) The treated plants and control plants were placed in a greenhouse as described above and watered by sub-irrigation to prevent wash-off of the test compounds. After approximately 3 weeks, the condition of the test plants as compared with that of the untreated plants was determined visually and scored on a scale of 0 to 100 percent where 0 corresponds to no injury or growth inhibition and 100 corresponds to complete kill. […]

[2] = system: SCPJU; assay: as above; type: in vivo, Schoenoplectus juncoides (Roxb.) Palla
Source text: as §1, §2, §3, §4, §5, §6, §7

[3] = system: BRAPP; assay: as above; type: in vivo, Brachiaria platyphylla (Griseb.) Nash; conditions: 70 gai/ha
Source text: as §1, §2, §3, §4, §5, §6, §7

[4] = system: DIGSA; assay: as above; type: in vivo, Digitaria sanguinalis (L.) Scop.; conditions: 70 gai/ha
Source text: as §1
Treatments consisted of the acid or esters of 4-amino-3-chloro-5-fluoro-6-(4-chloro-2-fluoro-3-methoxy-phenyl)pyridine-2-carboxylic acid (Compound A), each formulated as an SC (suspension concentrate), and various herbicidal components alone and in combination. […]
as §4
For treatments comprised of formulated compounds, measured amounts of compounds were placed individually in 25 mL glass vials and diluted in a volume of 1.25% (v/v) Agri-Dex® crop oil concentrated to obtain 12× stock solutions. […]
as §7

[5] = system: ECHCG; assay: Example VI in-water applied ternary mixtures, greenhouse, transplanted paddy rice weeds; type: in vivo, Echinochloa crus-galli (L.) Beauv.; conditions: Table 68, 22.5 gai/ha, 21 DAA
Description: (§8) Weed seeds or nutlets of the desired test plant species were planted in puddled soil (mud) prepared by mixing a shredded, non-sterilized mineral soil (50.5 percent silt, 25.5 percent clay, and 24 percent sand, with a pH of about 7.6 and an organic matter content of about 2.9 percent) and water at a 1:1 volumetric ratio. The prepared mud was dispensed in 365 mL aliquots into 16-ounce (oz.) non-perforated plastic pots with a surface area of 86.59 square centimeters (cm^2) leaving a headspace of 3 centimeters (cm) in each pot. Mud was allowed to dry overnight prior to planting or transplanting. Rice seeds were planted in Sun Gro MetroMix® 306 planting mixture, which typically has a pH of 6.0 to 6.8 and an organic matter content of about 30 percent, in plastic plug trays. Seedlings at the second or third leaf stage of growth were transplanted into 860 mL of mud contained in 32-oz. non-perforated plastic pots with a surface area of 86.59 cm^2 4 days prior to herbicide application. The paddy was created by filling the headspace of the pots with 2.5 to 3 cm of water. When required to ensure good germination and healthy plants, a fungicide treatment and/or other chemical or physical treatment was applied. The plants were grown for 4-22 days in a greenhouse with an approximate 14 hr. photoperiod which was maintained at about 29° C. during the day and 26° C. during the night. Nutrients were added as Osmocote® (19:6:12, N:P:K+minor nutrients) at 2 g per 16-oz. pot and 4 g per 32-oz. pot. Water was added on a regular basis to maintain the paddy flood, and supplemental lighting was provided with overhead metal halide 1000-Watt lamps as necessary. The plants were employed for testing when they reached the first through fourth true leaf stage.
Treatments consisted of the benzyl ester of 4-amino-3-chloro-5-fluoro-6-(4-chloro-2-fluoro-3-methoxy-phenyl)pyridine-2-carboxylic acid (Compound A), formulated as an SC (suspension concentrate), an ACCase inhibitor herbicide, and a third herbicidal component, each applied alone and in ternary combination. Forms of compound A were applied on an acid equivalent basis.
The ACCase inhibitor component was applied on an active ingredient basis and included cyhalofop-R-butyl formulated as Clincher® G and metamifop formulated as Metamifop EC. Other herbicidal components were applied on an active ingredient or acid equivalent basis depending on the compound and included penoxsulam formulated as Grasp® SC, bentazon sodium formulated as Basagran®, triclopyr […] (TEA) salt formulated as Grandstand® R, benzobicyclon formulated as Benzobicyclon, benfuresate formulated as Full Slot® WG, pyraclonil formulated as Pyraclon® Flowable, mefenacet (technical grade material), and pretilachlor (technical grade material).
Treatment requirements for each compound or herbicidal component were calculated based upon the rates being tested, the concentration of active ingredient or acid equivalent in the formulation, an application volume of 1 mL per component per pot, and an application area of 86.59 cm^2 per pot.
(§9) For formulated compounds, a measured amount was placed in an individual 100 or 200 mL glass vial and was dissolved in a volume of 1.25% (v/v) Agri-Dex® crop oil concentrate to obtain application solutions.
For technical grade compounds, a weighed amount was placed in an individual 100 to 200 mL glass vial and was dissolved in a volume of acetone to obtain concentrated stock solutions.
(§10) Applications were made by injecting with a pipetter appropriate amounts of the application solutions, into the aqueous layer of the paddy. Control plants were treated in the same manner with the solvent blank. Applications were made so that all treated plant material received the same concentrations of acetone and crop oil concentrate.
The treated plants and control plants were placed in a greenhouse as described above and water was added as needed to maintain a paddy flood. […]

[6] = system: SCPMA; assay: as above; type: in vivo; conditions: Table 68, pyraclonil 22.5 gai/ha
[7] = system: CYPDI; assay: Example I postemergence foliar-applied, greenhouse, direct seeded rice weeds; type: in vivo, Cyperus difformis L.
Source text: as §1, §2, §3, §4, §5
All stock solutions and applications solutions were visually inspected for compound compatibility prior to application. […]
as §7

[8] = system: CYPIR; assay: as above; type: in vivo, Cyperus iria L.
Source text: as §1, §2, §3, §4, §5, §6, §7

[9] = system: ECHCG; assay: as above; type: in vivo, Echinochloa crusgalli (L.) Beauv.
Source text: as §1, §2, §3, §4, §5, §6, §7

[10] = system: LEFCH; assay: as above; type: in vivo, Leptochloa chinensis (L.) Nees; conditions: 112 gai/ha
Source text: as §1, §2, §3, §4, §5, §6, §7

[11] = system: SCPJU; assay: Example II in-water applied, greenhouse, transplanted paddy rice weeds; type: in vivo, Schoenoplectus juncoides (Roxb.) Palla; conditions: in-water, 135 gai/ha
Description: as §8, with “When required to ensure good germination and healthy plants, a fungicide treatment and/or other chemical or physical treatment was applied.” left out
(§11) Treatments consisted of the acid or esters of 4-amino-3-chloro-5-fluoro-6-(4-chloro-2-fluoro-3-methoxy-phenyl)pyridine-2-carboxylic acid (compound A) each formulated as an SC (suspension concentrate) and various herbicidal components alone and in combination.
as §9
as §10, with “solutions, individually and sequentially,” for “solutions,”
(§12) The treated plants and control plants were placed in a greenhouse as described above and water was added as needed to maintain a paddy flood. After approximately 3 weeks the condition of the test plants as compared with that of the untreated plants was determined visually and scored on a scale of 0 to 100 percent where 0 corresponds to no injury or growth inhibition and 100 corresponds to complete kill.
(§13) Colby's equation was used to determine the herbicidal effects expected from the mixtures (Colby, S. R. 1967. Calculation of the synergistic and antagonistic response of herbicide combinations. Weeds 15:20-22.).
(§14) The following equation was used to calculate the expected activity of mixtures containing two active ingredients, A and B: Expected=A+B−(A×B/100)

[12] = system: FIMMI; assay: as above; type: in vivo, Fimbristylis miliacea (L.) Vahl
Description: as §8, with “When required to ensure good germination and healthy plants, a fungicide treatment and/or other chemical or physical treatment was applied.” left out
as §11, §9
as §10, with “solutions, individually and sequentially,” for “solutions,”
as §12, §13, §14

[13] = system: ECHCG; assay: as above; type: in vivo, Echinochloa crusgalli (L.) Beauv.; conditions: 135 gai/ha
Description: as §10, with “solutions, individually and sequentially,” for “solutions,”
as §12, §13, §14

CCSC(C)CC1CC(=O)C(/C(CC)=N/OC/C=C/Cl)=C(O)C1 (stereo not shown) [Clethodim, 2-[1-[[[(2E)-3-chloro-2-propen-1-yl]oxy]imino]propyl]-5-[2-(ethylthio)propyl]-3-hydroxy-2-cyclohexen-1-one, reference compound]
Visual Weed Control (%) - 20 DAA CYPES Obs ([1]; 70 gai/ha): 0%
Visual Weed Control (%) - 20 DAA CYPES Obs ([1]; 140 gai/ha): 0%
Visual Weed Control (%) - 20 DAA CYPES Obs ([1]; 280 gai/ha): 0%
Visual Weed Control (%) - 20 DAA SCPJU Obs ([2]; 140 gai/ha): 0%
Visual Weed Control (%) - 20 DAA SCPJU Obs ([2]; 280 gai/ha): 0%
Visual Weed Control (%) - 20 DAA BRAPP Obs [3]: 10%
Visual Weed Control (%) - 20 DAA DIGSA Obs [4]: 50%

C#CCN(C)c1c(C#N)cnn1-c1nn2c(c1Cl)CCCC2 [Pyraclonil]
Visual Weed Control (%) - 21 DAA ECHCG Obs [5]: 30%
Visual Weed Control (%) - 21 DAA SCPMA Obs [6]: 78%

CCC/C(=N\OCC)C1=C(O)CC(CC(C)SCC)CC1=O (stereo not shown) [Sethoxydim, 2-[1-(ethoxyimino)butyl]-5-[2-(ethylthio)propyl]-3-hydroxy-2-cyclohexen-1-one]
Visual Weed Control (%) - 22 DAA CYPDI Obs ([7]; 67.5 gai/ha): 0%
Visual Weed Control (%) - 22 DAA CYPDI Obs ([7]; 135 gai/ha): 0%
Visual Weed Control (%) - 22 DAA CYPDI Obs ([7]; 270 gai/ha): 0%
Visual Weed Control (%) - 22 DAA CYPES Obs ([1]; 67.5 gai/ha): 0%
Visual Weed Control (%) - 22 DAA CYPES Obs ([1]; 135 gai/ha): 0%
Visual Weed Control (%) - 22 DAA CYPES Obs ([1]; 270 gai/ha): 0%
Visual Weed Control (%) - 22 DAA SCPJU Obs ([2]; 67.5 gai/ha): 0%
Visual Weed Control (%) - 22 DAA SCPJU Obs ([2]; 135 gai/ha): 0%
Visual Weed Control (%) - 22 DAA SCPJU Obs ([2]; 270 gai/ha): 0%
Visual Weed Control (%) - 22 DAA CYPIR Obs ([8]; 67.5 gai/ha): 0%
Visual Weed Control (%) - 22 DAA CYPIR Obs ([8]; 135 gai/ha): 0%
Visual Weed Control (%) - 22 DAA CYPIR Obs ([8]; 270 gai/ha): 0%
Visual Weed Control (%) - 22 DAA ECHCG Obs ([9]; 56 gai/ha): 30%
Visual Weed Control (%) - 22 DAA ECHCG Obs ([9]; 112 gai/ha): 90%
Visual Weed Control (%) - 22 DAA LEFCH Obs [10]: 70%
Visual Weed Control (%) - 21 DAA SCPJU Obs [11]: 0%
Visual Weed Control (%) - 21 DAA FIMMI Obs ([12]; 135 gai/ha): 50%
Visual Weed Control (%) - 21 DAA FIMMI Obs ([12]; 270 gai/ha): 30%
Visual Weed Control (%) - 21 DAA ECHCG Obs [13]: 60%
